From PubChem BioAssay (NCI)
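Each compound was tested at five concentrations against cells in 96-well plates for 48 hours. At the GI50, growth is halved. TGI is the concentration that stops growth completely.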

What was measured:
Assay in all cases: growth of human tumour cells (NCI), 48 h
[1] = tested on: NCI-H226 lung
[2] = tested on: HT29 colon
[3] = tested on: SF-539 CNS
[4] = tested on: UO-31 renal
[5] = tested on: KM12 colon
[6] = tested on: RPMI-8226 leukemia
[7] = tested on: A549 NSCLC
[8] = tested on: COLO 205 colon
[9] = tested on: UACC-62 melanoma
[10] = tested on: OVCAR-4 ovarian
[11] = tested on: UACC-257 melanoma
[12] = tested on: SNB-75 CNS
[13] = tested on: A498 renal
[14] = tested on: CCRF-CEM leukemia
[15] = tested on: OVCAR-8 ovarian
[16] = tested on: T-47D breast
[17] = tested on: SK-MEL-5 melanoma
[18] = tested on: NCI-H522 lung
[19] = tested on: HCT-15 colon
[20] = tested on: HOP-62 NSCLC
[21] = tested on: MCF7 breast
[22] = tested on: SN12C renal
[23] = tested on: SR leukemia
[24] = tested on: ACHN renal
[25] = tested on: SK-MEL-2 melanoma
[26] = tested on: BT-549 breast
[27] = tested on: DU-145 prostate
[28] = tested on: PC-3 prostate

`Oc1ccc(-c2cn3ccsc3n2)cc1O` gave a GI50 [1] of 20.9 µM, a TGI [1] of 60.2 µM and a GI50 [2] of 29.5 µM. The TGI [2] was over 100 µM, the GI50 [3] was 19.7 µM and the TGI [3] was 79.6 µM. The GI50 [4] was 16 µM, the TGI [4] was over 100 µM and the GI50 [5] was 27.7 µM. The TGI [5] was over 100 µM, the GI50 [6] was 12.1 µM and the TGI [6] was 65.4 µM. The GI50 [7] was 72.8 µM, the TGI [7] was over 100 µM and the GI50 [8] was 29.9 µM. The TGI [8] was over 100 µM, the GI50 [9] was 19.6 µM and the TGI [9] was 43.9 µM. It also gave a GI50 [10] of 32.7 µM, a TGI [10] of over 100 µM and a GI50 [11] of over 100 µM. It also gave a TGI [11] of over 100 µM, a GI50 [12] of 55.1 µM and a TGI [12] of over 100 µM. It also gave a GI50 [13] of 25.9 µM, a TGI [13] of 83.6 µM and a GI50 [14] of 4.41 µM. For the same compound, the TGI [14] was 29.6 µM, the GI50 [15] was 35.8 µM and the TGI [15] was over 100 µM. The GI50 [16] was 32.4 µM, the TGI [16] was over 100 µM and the GI50 [17] was 10.5 µM. For the same compound, the TGI [17] was 26.7 µM, the GI50 [18] was 11.5 µM and the TGI [18] was 33.2 µM. It also gave a GI50 [19] of 37.8 µM, a TGI [19] of over 100 µM and a GI50 [20] of 43.2 µM. It also gave a TGI [20] of over 100 µM, a GI50 [21] of 18.3 µM and a TGI [21] of over 100 µM. For the same compound, the GI50 [22] was 18.5 µM, the TGI [22] was 37.8 µM and the GI50 [23] was 10.6 µM. It also gave a TGI [23] of 41.4 µM, a GI50 [24] of 22 µM and a TGI [24] of 56.3 µM. For the same compound, the GI50 [25] was 35.1 µM, the TGI [25] was over 100 µM and the GI50 [26] was 10.2 µM. It also gave a TGI [26] of 30.7 µM, a GI50 [27] of 28.7 µM and a TGI [27] of over 100 µM. It also gave a GI50 [28] of 21.7 µM and a TGI [28] of over 100 µM.
